# From patent US20250059205A1, “Heterocyclic Compounds and Methods of Use” (AMGEN INC., priority 2021, published 2025)
# Tests used:
# [1] = target: His-tagged KRAS G12D protein (Homo sapiens, UniProt P01116, G12D); assay: KRAS G12D TR-FRET Assay; format: binding
# [2] = target: GDP-bound KRAS protein (aa 1-169), containing both G12D and C118A amino acid substitutions (Homo sapiens, UniProt P01116, C118A/G12D); assay: KRAS G12D Coupled Nucleotide Exchange Assay; format: biochemical; details: 2 h compound pre-incubation
# Chain of GDP-bound KRAS protein (aa 1-169), containing both G12D and C118A amino acid substitutions (P01116 1-169 isoform P01116-2 G12D/C118A): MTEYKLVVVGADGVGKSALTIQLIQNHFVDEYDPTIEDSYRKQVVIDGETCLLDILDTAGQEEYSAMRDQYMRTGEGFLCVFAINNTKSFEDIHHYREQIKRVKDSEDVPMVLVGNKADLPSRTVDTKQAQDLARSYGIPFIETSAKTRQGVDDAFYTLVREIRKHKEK
# Procedure: Following compound pre-incubation, purified SOS protein (aa 564-1049) and GTP (Roche 10106399001) were added to the assay wells and incubated for an additional 30 min. […] The assay plates were then read on a PerkinElmer EnVision Multilabel Reader, using AlphaScreen® technology, and data were analyzed using a 4-parameter logistic model to calculate IC50 values.
# [3] = system: Phosphorylation of ERK1/2 in A-427 cells; assay: Phospho-ERK1/2 MSD Assay (A-427 cells); format: cell-based; details: Homo sapiens, A-427, 2 h, 2 h treatment, read-out: p-ERK (A427 cells) IC50
# In short: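 ERK1/2 phosphorylation measured by Meso Scale whole-cell lysate assay after A-427 cells were exposed to a titration of compound for 2 h at 37 °C.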
# [4] = system: Phosphorylation of ERK1/2 in AsPC-1 cells; assay: Phospho-ERK1/2 MSD Assay (AsPC-1 cells); format: cell-based; details: Homo sapiens, ASPC1, 2 h, 2 hours treatment, read-out: p-ERK (AsPC-1 cells) IC50
# In short: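 Read-out: MSD electrochemiluminescent detection of phosphorylated ERK1/2 in whole-cell lysates, fitted to a 4-parameter logistic curve for IC50. Prior to lysis, AsPC-1 cells (25,000 per well) received a 2 h compound dose-response at 37 °C.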
# Chain of His-tagged KRAS G12D protein (P01116 1-188 isoform P01116-2 G12D): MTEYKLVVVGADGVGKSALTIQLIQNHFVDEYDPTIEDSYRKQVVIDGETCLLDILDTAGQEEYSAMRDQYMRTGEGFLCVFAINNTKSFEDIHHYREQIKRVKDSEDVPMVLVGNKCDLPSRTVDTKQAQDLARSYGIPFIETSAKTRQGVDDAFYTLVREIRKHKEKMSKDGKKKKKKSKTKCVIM
SMILES,IC50 [1],Avg 2 h Coupled Exchange IC50 [2],IC50 [3],IC50 [4]
"CCc1cccc2cc(O)cc(-c3c(Cl)cc4c(N5C[C@@H]6CC[C@H]5CN6)nc(OC[C@@]56CCCN5C[C@H](F)C6)nc4c3F)c12 [Example 130, 4-(4-((1S,4S)-2,5-diazabicyclo[2.2.2]octan-2-yl)-6-chloro-8-fluoro-2-(((2R,7aS)-2-fluorotetrahydro-1H-pyrrolizin-7a(5H)-yl)methoxy)quinazolin-7-yl)-5-ethylnaphthalen-2-ol]",0.003 µM,0.005 µM,0.052 µM,0.102 µM
"CCc1c(F)ccc2cc(O)cc(-c3ccc4c(N5C[C@H]6CC[C@@H](C5)N6)nc(OCC(C)(C)O)nc4c3F)c12 [Example 131, 4-(4-((1R,5S)-3,8-diazabicyclo[3.2.1]octan-3-yl)-8-fluoro-2-(2-hydroxy-2-methylpropoxy)quinazolin-7-yl)-5-ethyl-6-fluoronaphthalen-2-ol]",0.009 µM,0.005 µM,0.682 µM,0.926 µM
"CCc1c(F)ccc2cc(O)cc(-c3ccc4c(N5C[C@H]6CC[C@@H](C5)N6)nc(OCCC(C)(C)O)nc4c3F)c12 [Example 132, 4-(4-((1R,5S)-3,8-diazabicyclo[3.2.1]octan-3-yl)-8-fluoro-2-(3-hydroxy-3-methylbutoxy)quinazolin-7-yl)-5-ethyl-6-fluoronaphthalen-2-ol]",0.016 µM,0.006 µM,1.69 µM,1.2 µM
"CCc1c(F)ccc2cc(O)cc(-c3ccc4c(N5C[C@H]6CC[C@@H](C5)N6)nc(OCC5(O)CCCC5)nc4c3F)c12 [Example 133, 4-(4-((1R,5S)-3,8-diazabicyclo[3.2.1]octan-3-yl)-8-fluoro-2-((1-hydroxycyclopentyl)methoxy)quinazolin-7-yl)-5-ethyl-6-fluoronaphthalen-2-ol]",0.007 µM,0.006 µM,2.43 µM,2.04 µM
"CCc1c(F)ccc2cc(O)cc(-c3c(Cl)cc4c(N5C[C@H]6CC[C@@H](C5)N6)nc(OC[C@@]56CCCN5C[C@H](F)C6)nc4c3F)c12 [Example 134, 4-(4-((1R,5S)-3,8-diazabicyclo[3.2.1]octan-3-yl)-6-chloro-8-fluoro-2-(((2R,7aS)-2-fluorotetrahydro-1H-pyrrolizin-7a(5H)-yl)methoxy)quinazolin-7-yl)-5-ethyl-6-fluoronaphthalen-2-ol]",0.004 µM,0.007 µM,0.057 µM,0.074 µM
"CCc1c(F)ccc2cc(O)cc(-c3ccc4c(N5C[C@H]6CC[C@@H](C5)N6)nc(OCC5(O)CCC5)nc4c3F)c12 [Example 135, 4-(4-((1R,5S)-3,8-diazabicyclo[3.2.1]octan-3-yl)-8-fluoro-2-((1-hydroxycyclobutyl)methoxy)quinazolin-7-yl)-5-ethyl-6-fluoronaphthalen-2-ol]",0.01 µM,0.009 µM,2.12 µM,2.27 µM
"CCc1c(F)ccc2cc(O)cc(-c3ccc4c(N5C[C@H]6CC[C@@H](C5)N6)nc(O[C@@H](C)C(C)(C)O)nc4c3F)c12 [Example 136, 4-(4-((1R,5S)-3,8-diazabicyclo[3.2.1]octan-3-yl)-8-fluoro-2-(((S)-3-hydroxy-3-methylbutan-2-yl)oxy)quinazolin-7-yl)-5-ethyl-6-fluoronaphthalen-2-ol]",0.056 µM,0.021 µM,5.35 µM,4.16 µM
"Oc1cc(-c2c(Cl)cc3c(N4C[C@H]5CC[C@@H](C4)N5)nc(OC[C@@]45CCCN4C[C@H](F)C5)nc3c2F)c2c(F)cccc2c1 [Example 137, 4-(4-((1R,5S)-3,8-diazabicyclo[3.2.1]octan-3-yl)-6-chloro-8-fluoro-2-(((2R,7aS)-2-fluorotetrahydro-1H-pyrrolizin-7a(5H)-yl)methoxy)quinazolin-7-yl)-5-fluoronaphthalen-2-ol]",0.037 µM,0.034 µM,0.411 µM,1.71 µM
